The numbers were not newly measured in US20070298096A1, “Analgesic/Antipyretic Compositions for Enhanced Absorption” (priority 2004, published 2007), which cites them from elsewhere.

Where two headings read alike, the source gives them in different places.

Regarding `CC(=O)Nc1ccc(O)cc1` [APAP, acetaminophen], the tmax is, setting by setting: (1 gram of APAP administered with 4 grams of calcium carbonate) 1.9 h; (APAP alone, 1 gram) 1.4 h. For the same compound, where the note is “co-administered with the calcium carbonate”, the “time for the plasma level of APAP to reach its maximum, longer than APAP alone” value is “½”.
